Experimental findings from patent publication US10281476B2, “Methods to identify modulators of RyR calcium channels” (REGENTS OF THE UNIVERSITY OF MINNESOTA, priority 2013, dated 2019) are described below.

Where no end group is shown, it is not given here.

In one assay the target is RyR2 (Rattus norvegicus, UniProt B0LPN4). The assay can be described thus: Fluorescent CaM binding at the Z-line and at RyR2 (FKBP12.6-CaM FRET) in permeabilized myocytes. Set-up: These fluorescent proteins were added to saponin-permeabilized myocytes with or without pre-equilibration with saturating DPc10 concentration; endogenous in cells; host or cells: saponin-permeabilized rat ventricular myocytes. Here is the method: These fluorescent proteins were added to saponin-permeabilized myocytes with or without pre-equilibration with saturating DPc10 concentration. […] We also did this with high [CaM] (500 nmol/L) that saturates RyR2 with CaM under control conditions (without DPc10; FIG. 17C). […] To test whether DPc10 and CaM bind at the same or nearby RyR2 sites, we measured FRET between CaM and DPc10.
CaM also binds to RyR2 and reduces RyR2 open probability, and works as a regulatory protein for RyR2 channel gating (Yamaguchi et al., J Biol Chem. 2003; 278:23480-23486; Balshaw et al., J Biol Chem. 2001; 276:20144-20153; Yang et al., Circ Res. 2014; 114:295-306); Yamaguchi et al., J Clin Invest. 2007; 117:1344-1353). We measured the effect of H2O2 on CaM-RyR2 binding affinity using F-CaM as in our previous reports (Yang et al., Circ Res. 2014; 114:295-306; Cornea et al., Proc Natl Acad Sci USA. 2009; 106:6128-6133).
(50 μmol/L) in media containing 50 μmol/L H2O2 (the same concentration used in myocyte pre-incubation experiments). This allowed F-CaM oxidation (and call this F-CaM^Ox). This was then diluted 2500-fold to 20 nmol/L F-CaM^Ox and no H2O2 was present in the myocyte bath.
As a further test of whether RyR2 oxidation alone inhibits subsequent CaM affinity, we removed H2O2 from the myocytes by repeated washing, prior to the addition of F-CaM.

For assay [1], the system named is rat intact cardiomyocytes. The assay is described as follows: Ca2+ transients in intact cardiomyocytes. As to conditions: H2O2 50 μmol/L, dantrolene 1 μmol/L, 1 Hz. The class given is cell-based. As for the experimental part: Intact cardiomyocytes were loaded with Fluo-4 AM (5 μmol/L, Molecular Probes) for 15 min in NT solution (in mM): NaCl 140, KCl 4, MgCl2 1, CaCl2 2, glucose 10, HEPES 5, pH 7.4. Fluo-4 AM was excited at 488 nm and emission was recorded using a 500-530 nm bandpass filter. Ca^2+sparks were recorded after field stimulation at 1 Hz, and caffeine (10mmol/L) was rapidly perfused for assessing the SR Ca^2+content. Both Ca^2+sparks and SR Ca^2+content were recorded by using a laser scanning confocal microscope (RADIANCE2000™ MP, Bio-Rad, UK). Data were analyzed using SparkMaster, an automated analysis program that allows rapid and reliable spark analysis (Picht et al., J. Am J Physiol Cell Physiol. 2007;293:C1073-C1081). Spontaneous Ca^2+waves were recorded using a BZ9000 fluorescence digital microscope (Keyence, Japan), after 10 sec from field electric stimulation at 1,2,3,4 and 5 Hz, as described previously (Fukuda et al., Biochem Biophys Res Commun. 2014;448:1-7).
Oxidation induced by hydrogen peroxide (H2O2) is expected to activate SR Ca^2+ leak through RyR2 at diastolic [Ca]i (Wagner et al., Circ Res. 2011; 108:555-65; Yan et al., Cardiovasc Res. 2008; 77:432-41). We used line-scan images to measure the effects of 50 μM/L H2O2 on Ca^2+ spark frequency (CaSpF) and SR Ca^2+ content (evaluated via rapid caffeine application) in intact cardiomyocytes after 1 Hz electric field stimulation (FIG. 25). […] Thus H2O2 may enhance diastolic RyR2 channel opening. […] So CaSpF normalized to SR Ca^2+ content, was significant increase by H2O2 treatment of myocytes (FIG. 25C).

Assay [2] deals with intracellular reactive oxygen species (ROS). The assay is described as follows: Intracellular ROS by H2DCFDA fluorescence. The note with it: 50 μmol/L H2O2, with or without dantrolene pretreatment. The format is cell-based, rat. Here is the method: Intracellular reactive oxygen species (ROS) formation was measured in rat cardiac myocytes using a fluorescent probe, 5-(and -6)-chloromethyl-2′,7′-dichlorodihydrofluoroscein diacetate (H2DCFDA, 10 μmol/L) (Terentyev et al., Circ Res. 2008; 103:1466-1472). This assay is widely used as a reliable method for the measurement of intracellular ROS such as hydrogen peroxide, hydroxyl radicals, and hydroperoxide. The H2DCFDA dye was excited with the 488 nm and emission was collected at 500-530 nm. The content of free thiols in RyR2 was determined based on the monobromobimane (mBB, Calbiochem) fluorescence intensity, as previously described (Terentyev et al., Circ Res. 2008; 103:1466-1472; Ho et al., J Physiol. 2011; 19:4697-4708). In brief, myocytes were incubated with mBB for 1 hr. Myocytes were then lysed in lysis buffer and loaded on 6% SDS-PAGE gels. The fluorescence emission intensity of the RyR2-bound mBB was measured at 482 nm by exciting at 382 nm. mBB fluorescence was normalized to the RyR2 amount, which was determined using quantitative densitometry of Coomassie Blue-stained gels.
To monitor intracellular ROS level, we used H2DCFDA (10 μmol/L). […] To assess whether dantrolene can attenuate the extent of RyR2 thiol modification in H2O2-treated myocytes, we used a monobromobimane (mBB) fluorescence labeling assay.

Chain of RyR2 (B0LPN4 whole entry): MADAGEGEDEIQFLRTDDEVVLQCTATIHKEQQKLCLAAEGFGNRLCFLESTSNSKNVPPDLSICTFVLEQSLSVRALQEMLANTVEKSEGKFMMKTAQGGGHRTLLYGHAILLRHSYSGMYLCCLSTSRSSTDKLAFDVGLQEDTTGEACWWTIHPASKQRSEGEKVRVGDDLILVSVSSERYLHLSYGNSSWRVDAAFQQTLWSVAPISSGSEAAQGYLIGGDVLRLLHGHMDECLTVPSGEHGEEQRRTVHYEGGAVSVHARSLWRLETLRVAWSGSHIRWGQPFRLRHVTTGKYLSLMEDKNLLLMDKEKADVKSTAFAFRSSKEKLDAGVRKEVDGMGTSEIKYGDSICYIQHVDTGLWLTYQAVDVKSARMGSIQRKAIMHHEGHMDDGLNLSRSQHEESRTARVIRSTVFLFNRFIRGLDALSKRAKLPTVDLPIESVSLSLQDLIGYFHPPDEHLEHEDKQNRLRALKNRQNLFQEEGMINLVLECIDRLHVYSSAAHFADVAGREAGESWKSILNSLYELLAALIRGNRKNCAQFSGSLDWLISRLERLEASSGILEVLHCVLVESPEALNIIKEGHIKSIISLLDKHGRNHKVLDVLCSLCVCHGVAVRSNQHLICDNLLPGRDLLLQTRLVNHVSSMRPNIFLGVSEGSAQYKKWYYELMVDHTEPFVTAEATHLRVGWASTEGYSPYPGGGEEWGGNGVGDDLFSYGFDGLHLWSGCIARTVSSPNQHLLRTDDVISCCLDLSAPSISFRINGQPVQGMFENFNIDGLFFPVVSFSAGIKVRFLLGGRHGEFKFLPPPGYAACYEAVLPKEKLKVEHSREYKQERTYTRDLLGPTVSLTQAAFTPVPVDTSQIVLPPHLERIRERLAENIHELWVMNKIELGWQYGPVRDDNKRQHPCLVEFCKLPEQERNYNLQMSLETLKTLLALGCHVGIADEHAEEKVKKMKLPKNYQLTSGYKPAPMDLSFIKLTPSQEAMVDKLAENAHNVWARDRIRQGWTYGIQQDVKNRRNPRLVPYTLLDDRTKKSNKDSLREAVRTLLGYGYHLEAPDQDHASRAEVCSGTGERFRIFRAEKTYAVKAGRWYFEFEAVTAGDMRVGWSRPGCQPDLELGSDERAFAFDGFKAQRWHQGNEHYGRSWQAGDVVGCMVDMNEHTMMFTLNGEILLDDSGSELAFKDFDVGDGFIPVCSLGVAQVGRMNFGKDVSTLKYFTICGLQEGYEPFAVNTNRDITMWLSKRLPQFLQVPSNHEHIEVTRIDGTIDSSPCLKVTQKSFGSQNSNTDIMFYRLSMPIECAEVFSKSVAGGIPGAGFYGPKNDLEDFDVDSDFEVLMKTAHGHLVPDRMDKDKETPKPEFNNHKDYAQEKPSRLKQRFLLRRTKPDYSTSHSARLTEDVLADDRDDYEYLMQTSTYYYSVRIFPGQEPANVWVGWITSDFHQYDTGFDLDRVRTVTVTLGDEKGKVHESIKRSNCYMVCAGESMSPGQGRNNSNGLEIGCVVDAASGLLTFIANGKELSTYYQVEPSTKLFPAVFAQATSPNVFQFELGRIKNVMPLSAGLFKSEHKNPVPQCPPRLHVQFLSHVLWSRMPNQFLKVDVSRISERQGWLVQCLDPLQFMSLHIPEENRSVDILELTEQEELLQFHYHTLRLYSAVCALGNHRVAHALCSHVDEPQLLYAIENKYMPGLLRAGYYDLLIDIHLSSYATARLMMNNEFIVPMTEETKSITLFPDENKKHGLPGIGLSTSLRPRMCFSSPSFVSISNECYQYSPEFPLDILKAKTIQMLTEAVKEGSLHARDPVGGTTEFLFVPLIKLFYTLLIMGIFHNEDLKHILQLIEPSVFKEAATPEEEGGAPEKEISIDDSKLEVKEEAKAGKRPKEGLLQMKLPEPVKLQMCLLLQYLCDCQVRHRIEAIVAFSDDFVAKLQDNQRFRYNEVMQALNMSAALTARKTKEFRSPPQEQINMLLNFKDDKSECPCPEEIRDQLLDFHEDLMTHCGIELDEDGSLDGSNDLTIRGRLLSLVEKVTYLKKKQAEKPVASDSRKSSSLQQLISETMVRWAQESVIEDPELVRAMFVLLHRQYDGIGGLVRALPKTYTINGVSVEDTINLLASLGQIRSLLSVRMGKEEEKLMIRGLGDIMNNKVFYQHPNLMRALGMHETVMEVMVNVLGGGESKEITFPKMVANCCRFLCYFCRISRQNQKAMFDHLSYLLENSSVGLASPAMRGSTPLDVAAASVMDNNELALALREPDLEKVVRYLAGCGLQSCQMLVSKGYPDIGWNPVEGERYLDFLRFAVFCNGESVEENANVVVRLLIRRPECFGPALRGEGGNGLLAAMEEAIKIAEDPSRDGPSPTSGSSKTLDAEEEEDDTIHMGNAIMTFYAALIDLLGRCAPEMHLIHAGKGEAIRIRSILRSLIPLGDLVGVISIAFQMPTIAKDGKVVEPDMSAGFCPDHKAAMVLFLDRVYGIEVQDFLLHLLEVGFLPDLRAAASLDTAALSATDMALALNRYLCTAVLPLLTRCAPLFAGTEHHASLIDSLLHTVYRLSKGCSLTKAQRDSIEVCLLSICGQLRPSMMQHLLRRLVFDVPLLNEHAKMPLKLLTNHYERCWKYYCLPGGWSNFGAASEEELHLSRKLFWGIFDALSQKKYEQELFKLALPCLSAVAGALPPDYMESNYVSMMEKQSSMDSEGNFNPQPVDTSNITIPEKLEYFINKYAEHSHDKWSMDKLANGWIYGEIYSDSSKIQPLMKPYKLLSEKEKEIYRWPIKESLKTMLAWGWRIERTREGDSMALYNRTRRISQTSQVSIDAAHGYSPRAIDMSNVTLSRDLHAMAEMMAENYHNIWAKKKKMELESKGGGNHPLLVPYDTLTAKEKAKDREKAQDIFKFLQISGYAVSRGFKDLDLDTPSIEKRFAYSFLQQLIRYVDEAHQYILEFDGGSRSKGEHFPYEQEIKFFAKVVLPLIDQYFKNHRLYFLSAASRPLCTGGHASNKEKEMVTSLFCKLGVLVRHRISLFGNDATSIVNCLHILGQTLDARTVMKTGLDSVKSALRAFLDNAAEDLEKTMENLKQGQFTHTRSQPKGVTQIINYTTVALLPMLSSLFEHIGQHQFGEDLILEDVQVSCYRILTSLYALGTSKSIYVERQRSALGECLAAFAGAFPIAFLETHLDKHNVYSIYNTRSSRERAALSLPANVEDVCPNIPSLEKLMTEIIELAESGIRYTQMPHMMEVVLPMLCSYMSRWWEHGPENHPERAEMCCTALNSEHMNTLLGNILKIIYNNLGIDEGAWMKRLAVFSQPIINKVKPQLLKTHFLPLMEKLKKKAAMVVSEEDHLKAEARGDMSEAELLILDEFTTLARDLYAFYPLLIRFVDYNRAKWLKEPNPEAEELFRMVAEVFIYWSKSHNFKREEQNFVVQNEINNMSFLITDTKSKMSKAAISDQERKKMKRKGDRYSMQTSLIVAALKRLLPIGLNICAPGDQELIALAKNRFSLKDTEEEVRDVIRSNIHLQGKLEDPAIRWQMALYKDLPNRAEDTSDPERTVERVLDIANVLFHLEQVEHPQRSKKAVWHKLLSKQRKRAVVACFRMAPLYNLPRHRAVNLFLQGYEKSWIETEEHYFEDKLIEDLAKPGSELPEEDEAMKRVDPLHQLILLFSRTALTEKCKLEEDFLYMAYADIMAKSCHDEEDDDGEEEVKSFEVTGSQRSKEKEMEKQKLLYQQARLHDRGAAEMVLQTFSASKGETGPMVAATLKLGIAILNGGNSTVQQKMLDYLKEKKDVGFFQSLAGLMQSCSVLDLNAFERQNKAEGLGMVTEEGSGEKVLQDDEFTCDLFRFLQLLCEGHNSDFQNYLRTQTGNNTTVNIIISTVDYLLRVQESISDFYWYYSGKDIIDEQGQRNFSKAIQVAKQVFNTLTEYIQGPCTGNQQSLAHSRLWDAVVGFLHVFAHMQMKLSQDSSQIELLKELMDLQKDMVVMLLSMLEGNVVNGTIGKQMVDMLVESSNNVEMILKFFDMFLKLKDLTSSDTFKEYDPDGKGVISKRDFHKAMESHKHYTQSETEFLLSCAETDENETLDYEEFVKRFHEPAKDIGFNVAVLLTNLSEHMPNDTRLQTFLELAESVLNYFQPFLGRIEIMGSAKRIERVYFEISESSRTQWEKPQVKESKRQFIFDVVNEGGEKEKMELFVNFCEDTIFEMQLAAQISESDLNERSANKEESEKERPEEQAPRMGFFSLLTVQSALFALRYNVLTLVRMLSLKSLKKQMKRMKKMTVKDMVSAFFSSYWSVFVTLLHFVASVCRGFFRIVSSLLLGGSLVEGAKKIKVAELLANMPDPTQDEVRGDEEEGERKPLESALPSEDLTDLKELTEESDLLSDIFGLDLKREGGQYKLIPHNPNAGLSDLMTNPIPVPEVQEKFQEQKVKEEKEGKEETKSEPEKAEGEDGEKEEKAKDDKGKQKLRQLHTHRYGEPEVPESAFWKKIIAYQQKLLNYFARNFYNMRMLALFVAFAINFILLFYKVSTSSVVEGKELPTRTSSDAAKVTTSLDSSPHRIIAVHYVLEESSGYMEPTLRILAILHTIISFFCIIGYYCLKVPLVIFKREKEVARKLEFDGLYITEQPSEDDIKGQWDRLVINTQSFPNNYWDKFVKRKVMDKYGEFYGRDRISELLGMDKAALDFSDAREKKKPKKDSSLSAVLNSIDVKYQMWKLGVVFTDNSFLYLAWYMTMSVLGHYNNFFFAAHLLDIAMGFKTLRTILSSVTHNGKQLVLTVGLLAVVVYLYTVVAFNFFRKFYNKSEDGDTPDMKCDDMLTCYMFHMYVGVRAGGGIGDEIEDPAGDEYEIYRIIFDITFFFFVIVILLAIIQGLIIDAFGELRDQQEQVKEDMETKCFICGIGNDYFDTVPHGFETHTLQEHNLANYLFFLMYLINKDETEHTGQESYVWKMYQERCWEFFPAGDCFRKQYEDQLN

For `OO` [H2O2, hydrogen peroxide], at RyR2 (50 μmol/L H2O2 not removed, F-CaM 20 nmol/L), the “reduction of F-CaM binding, myocytes pre-treated with H2O2” value worked out at 50%. Moreover, on RyR2 (50 μmol/L H2O2 removed by washing before F-CaM), the “reduction of F-CaM binding at the Z-line” value amounted to 32%. Moreover, the “effect on F-CaM binding at the Z-line” value on RyR2 (10 and 50 μmol/L H2O2 pretreatment, F-CaM 20 nmol/L) was “reduced”. Moreover, the “reduction of RyR2 A-CaM binding” value at RyR2 (subsaturating A-CaM, 50 μM H2O2) is approximately 50%. Moreover, in assay [1], the “Tau [Ca]i decline” value worked out at 0.32 ± 0.01 s and the “Δ [Ca]i twitch (ΔF/F0)” value is recorded as 2.56 ± 0.19 ΔF/F0. Also, in assay [2], the “intracellular ROS level” value is recorded as “increased”.
Regarding “GFCPDHKAAMVLFLDRVYGIEVQDFLLHLLEVGFLP [DPc10]”, the “effect on CaM binding at the RyR2 and at the Z-line” value at RyR2 (20 nmol/L CaM, DPc10 pretreatment) is recorded as “significantly reduced”. The “effect on CaM binding at the RyR2 (FRET) and at the Z-lines (total)” value on RyR2 (500 nmol/L AF568-34-CaM, DPc10-treated myocytes) is “reduced”.
As to `O=C1CN(/N=C/c2ccc(-c3ccc([N+](=O)[O-])cc3)o2)C(O)=N1` [dantrolene], the “restoration of F-CaM binding in H2O2-treated myocytes” value on RyR2 (dantrolene 1 μmol/L, AIP 1 μmol/L) is “partially restore”. For the same compound, the “effect on CaM-RyR2 affinity under control conditions” value on RyR2 (no H2O2) is given as “Neither AIP nor dantrolene alter”. In addition, in assay [1], the “Tau [Ca]i decline” value is 0.31 ± 0.01 s and the “Δ [Ca]i twitch (ΔF/F0)” value is on record as 2.35 ± 0.16 ΔF/F0. Further, the “intracellular ROS level” value in assay [2] is “does not alter”.
